The source of these data is ChEMBL document CHEMBL1201862, “PubChem BioAssay data set” (2004).

The target of one test is SUMO-activating enzyme (Homo sapiens, UniProt Q9UBT2). Nature of the test: SUMOylation inhibitor hit validation, confirmation, SUMOylation inhibitor project, biochemical, AlphaScreen (AID 2018). Type of test: functional. A general note: Alpha assays give light when donor and acceptor beads are brought close together.
For test [1], the target named is Peroxisome proliferator-activated receptor gamma/Nuclear receptor corepressor 2 (Homo sapiens, UniProt P37231+Q9Y618). Type of test: functional.
Sequence of Peroxisome proliferator-activated receptor gamma/Nuclear receptor corepressor 2 (P37231 whole entry): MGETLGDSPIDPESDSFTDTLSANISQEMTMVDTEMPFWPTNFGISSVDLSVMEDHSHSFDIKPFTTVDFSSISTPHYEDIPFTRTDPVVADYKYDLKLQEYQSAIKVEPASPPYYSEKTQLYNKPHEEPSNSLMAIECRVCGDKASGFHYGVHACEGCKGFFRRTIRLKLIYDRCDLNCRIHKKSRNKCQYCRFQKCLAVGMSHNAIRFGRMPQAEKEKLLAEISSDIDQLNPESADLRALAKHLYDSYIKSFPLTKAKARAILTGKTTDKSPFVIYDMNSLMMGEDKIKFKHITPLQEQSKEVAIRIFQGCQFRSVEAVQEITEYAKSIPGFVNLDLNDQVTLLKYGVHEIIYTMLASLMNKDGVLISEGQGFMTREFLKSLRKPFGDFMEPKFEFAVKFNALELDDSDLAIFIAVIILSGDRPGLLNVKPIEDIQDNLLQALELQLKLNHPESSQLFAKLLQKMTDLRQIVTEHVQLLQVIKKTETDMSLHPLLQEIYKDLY
Sequence of Peroxisome proliferator-activated receptor gamma/Nuclear receptor corepressor 2 (Q9Y618 whole entry): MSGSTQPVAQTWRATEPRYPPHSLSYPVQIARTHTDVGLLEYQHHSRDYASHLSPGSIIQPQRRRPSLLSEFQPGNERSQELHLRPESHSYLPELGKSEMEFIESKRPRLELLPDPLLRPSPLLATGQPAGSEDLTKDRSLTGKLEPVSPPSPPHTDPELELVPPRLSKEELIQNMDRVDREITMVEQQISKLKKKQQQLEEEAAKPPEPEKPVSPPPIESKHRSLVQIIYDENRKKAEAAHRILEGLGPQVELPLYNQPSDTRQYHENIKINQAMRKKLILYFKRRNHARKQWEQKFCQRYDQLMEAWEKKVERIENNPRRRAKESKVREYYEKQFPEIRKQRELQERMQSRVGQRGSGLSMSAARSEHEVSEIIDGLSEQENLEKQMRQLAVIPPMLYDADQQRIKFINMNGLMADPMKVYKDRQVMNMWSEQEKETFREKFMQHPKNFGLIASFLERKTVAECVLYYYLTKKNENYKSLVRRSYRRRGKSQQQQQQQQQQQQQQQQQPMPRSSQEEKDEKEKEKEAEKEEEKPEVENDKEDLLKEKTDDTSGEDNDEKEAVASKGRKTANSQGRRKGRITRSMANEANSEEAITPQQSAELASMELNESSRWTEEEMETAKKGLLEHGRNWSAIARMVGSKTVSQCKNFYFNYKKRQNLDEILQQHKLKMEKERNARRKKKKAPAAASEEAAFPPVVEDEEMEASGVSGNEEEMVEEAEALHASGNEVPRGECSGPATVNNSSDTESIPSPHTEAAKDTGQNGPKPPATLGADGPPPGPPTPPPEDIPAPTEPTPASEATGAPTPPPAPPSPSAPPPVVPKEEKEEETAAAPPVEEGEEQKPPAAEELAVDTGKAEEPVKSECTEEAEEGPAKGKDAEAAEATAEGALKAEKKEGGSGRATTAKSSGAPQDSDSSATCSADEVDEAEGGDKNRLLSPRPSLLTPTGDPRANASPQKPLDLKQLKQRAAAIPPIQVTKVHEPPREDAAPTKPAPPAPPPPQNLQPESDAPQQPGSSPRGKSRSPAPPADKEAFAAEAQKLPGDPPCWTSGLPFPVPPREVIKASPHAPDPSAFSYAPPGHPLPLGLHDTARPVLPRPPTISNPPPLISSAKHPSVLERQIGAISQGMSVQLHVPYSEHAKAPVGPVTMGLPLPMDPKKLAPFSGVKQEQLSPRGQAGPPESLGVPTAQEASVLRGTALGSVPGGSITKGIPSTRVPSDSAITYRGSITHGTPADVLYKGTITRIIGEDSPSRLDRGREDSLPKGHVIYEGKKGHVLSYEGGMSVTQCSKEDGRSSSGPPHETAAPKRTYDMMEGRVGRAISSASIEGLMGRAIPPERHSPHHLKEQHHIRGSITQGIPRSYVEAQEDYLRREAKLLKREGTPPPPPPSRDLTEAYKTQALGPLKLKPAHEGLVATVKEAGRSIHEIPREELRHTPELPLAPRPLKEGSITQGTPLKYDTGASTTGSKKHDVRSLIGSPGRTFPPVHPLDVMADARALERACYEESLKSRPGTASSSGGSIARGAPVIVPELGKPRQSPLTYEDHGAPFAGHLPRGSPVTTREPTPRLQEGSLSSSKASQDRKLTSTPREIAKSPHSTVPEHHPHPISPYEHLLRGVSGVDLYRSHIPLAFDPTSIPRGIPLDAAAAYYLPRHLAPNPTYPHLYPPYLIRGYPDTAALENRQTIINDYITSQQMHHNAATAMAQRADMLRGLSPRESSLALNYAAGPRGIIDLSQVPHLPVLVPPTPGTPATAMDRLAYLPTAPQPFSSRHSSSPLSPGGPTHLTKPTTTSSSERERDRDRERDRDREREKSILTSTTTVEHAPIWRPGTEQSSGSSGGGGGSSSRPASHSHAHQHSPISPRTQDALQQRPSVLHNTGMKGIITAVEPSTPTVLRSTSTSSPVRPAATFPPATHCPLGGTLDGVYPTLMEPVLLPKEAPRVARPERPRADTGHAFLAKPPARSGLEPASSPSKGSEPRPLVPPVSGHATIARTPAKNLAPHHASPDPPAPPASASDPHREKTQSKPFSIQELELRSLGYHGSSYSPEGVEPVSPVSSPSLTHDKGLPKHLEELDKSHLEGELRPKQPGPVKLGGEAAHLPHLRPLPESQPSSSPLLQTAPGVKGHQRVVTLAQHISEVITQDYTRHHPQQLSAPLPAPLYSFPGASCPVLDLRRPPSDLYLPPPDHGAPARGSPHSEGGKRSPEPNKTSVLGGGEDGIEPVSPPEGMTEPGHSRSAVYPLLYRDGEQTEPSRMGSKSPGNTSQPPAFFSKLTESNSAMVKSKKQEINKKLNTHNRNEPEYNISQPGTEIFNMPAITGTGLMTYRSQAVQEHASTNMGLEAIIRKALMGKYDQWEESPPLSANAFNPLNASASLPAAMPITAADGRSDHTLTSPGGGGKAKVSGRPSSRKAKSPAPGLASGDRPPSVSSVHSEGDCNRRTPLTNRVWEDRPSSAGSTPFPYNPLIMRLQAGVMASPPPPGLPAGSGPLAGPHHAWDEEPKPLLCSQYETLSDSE
The next test concerns the target Focal adhesion kinase 1 (Homo sapiens, UniProt Q05397). Type of test: functional.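 Further: measured as one member of a kinome panel.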
Test [2] addresses Protein kinase C theta type (Homo sapiens, UniProt Q04759). Nature of the test: Navigating the Kinome. Panel member name: PRKCQ. Type of test: functional.
The target of test [3] is Ribosomal protein S6 kinase alpha-3 (Homo sapiens, UniProt P51812). Type of test: functional.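 Further: measured within a kinome-wide profiling panel.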
For a further test, the target named is T1, Protein RecA (Mycobacterium tuberculosis, UniProt P9WHJ3).
T1 sequence (P9WHJ3 whole entry): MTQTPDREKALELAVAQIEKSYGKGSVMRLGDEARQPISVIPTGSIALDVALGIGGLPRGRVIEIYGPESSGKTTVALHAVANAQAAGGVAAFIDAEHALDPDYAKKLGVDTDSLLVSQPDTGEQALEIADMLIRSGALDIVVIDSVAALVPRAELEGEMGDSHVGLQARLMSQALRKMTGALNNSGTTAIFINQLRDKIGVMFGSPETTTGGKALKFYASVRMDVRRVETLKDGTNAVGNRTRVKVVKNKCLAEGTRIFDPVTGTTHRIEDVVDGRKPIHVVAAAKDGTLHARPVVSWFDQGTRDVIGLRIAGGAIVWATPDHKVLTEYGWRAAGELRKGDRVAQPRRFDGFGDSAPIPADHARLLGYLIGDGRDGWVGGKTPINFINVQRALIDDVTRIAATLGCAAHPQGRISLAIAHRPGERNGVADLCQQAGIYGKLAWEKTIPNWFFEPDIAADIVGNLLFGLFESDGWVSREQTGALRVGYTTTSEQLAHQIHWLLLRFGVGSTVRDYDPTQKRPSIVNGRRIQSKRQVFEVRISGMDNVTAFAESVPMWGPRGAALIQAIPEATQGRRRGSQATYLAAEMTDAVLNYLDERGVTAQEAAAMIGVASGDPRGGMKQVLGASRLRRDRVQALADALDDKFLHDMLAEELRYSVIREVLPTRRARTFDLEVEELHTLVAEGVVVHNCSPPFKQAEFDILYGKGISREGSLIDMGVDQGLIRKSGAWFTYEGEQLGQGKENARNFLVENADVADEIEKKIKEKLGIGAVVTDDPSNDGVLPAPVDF
The experiment in a line: Fluorescence Cell-Free Homogeneous Dose Retest to Identify Inhibitors of RecA-Intein Splicing Activity. [Related pubchem assays (depositor defined):AID2097, AID2223, AID489010, AID492950]. Type of test: functional.

The target of another test is Orexin receptor type 2 (Homo sapiens, UniProt O43614). The experiment in a line: Counterscreen assay for antagonists of the orexin 1 receptor (OX1R; HCRTR1): Fluorescence-based cell-based dose response assay for antagonists of the orexin 2 receptor (OX2R; HCRTR2), run by assay provider. Type of test: functional. For orientation: The purpose of a counterscreen is to sort out artefacts and off-target activity.
Sequence of Orexin receptor type 2 (O43614 whole entry): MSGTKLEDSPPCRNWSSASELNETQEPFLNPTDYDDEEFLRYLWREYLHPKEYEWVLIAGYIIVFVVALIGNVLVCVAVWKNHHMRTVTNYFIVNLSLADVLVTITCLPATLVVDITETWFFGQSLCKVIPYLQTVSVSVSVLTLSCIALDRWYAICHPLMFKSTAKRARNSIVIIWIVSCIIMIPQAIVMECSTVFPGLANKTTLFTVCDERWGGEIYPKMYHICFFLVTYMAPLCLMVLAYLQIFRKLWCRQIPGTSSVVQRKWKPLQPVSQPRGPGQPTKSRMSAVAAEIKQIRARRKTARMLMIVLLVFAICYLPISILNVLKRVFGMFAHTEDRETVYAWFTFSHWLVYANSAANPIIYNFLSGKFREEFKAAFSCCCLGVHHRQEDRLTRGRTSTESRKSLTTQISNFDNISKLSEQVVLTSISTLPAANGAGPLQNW

A short description of test [4]: miR-122 activators in hepatoma reporter cells, dose response, cell-based, Huh7 psiCHECK-miR122, Renilla luciferase, cherry-picked (AID 651956).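 Further: huh7 hepatoma cells stably carrying a psiCHECK-2 miR-122 sensor plasmid; renilla luciferase signal reporting endogenous miR-122 activity after 48 h compound exposure.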 Type of test: functional.
Test [5] in a line: Counterscreen for antagonists of the orexin 1 receptor (OX1R; HCRTR1): Fluorescence-based cell-based high throughput dose response assay to identify antagonists of the parental CHO cell line. [Related pubchem assays (depositor defined):AID434989, AID435008, AID463079, AID485270, AID492963, AID492964, AID492965, AID493232, AID504699, AID504701]. Type of test: functional.
The next test has as its target Beta Lactamase (Pseudomonas aeruginosa, UniProt Q932Y6). The experiment in a line: beta-lactamase reporter inhibitor potency, dose response, artefact control for TLR9-MyD88 binding inhibitor project, BLA reporter cells, FRET fluorescence (AID 588341).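 Further: cell based assay in CHO-K1 cells stably expressing beta-lactamase.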 Type of test: cell-based.
Test [6] can be described thus: Intein inhibitors as potential Tuberculosis drugs, a cytotoxicity screen. [Related pubchem assays (depositor defined):AID2221, AID2223, AID434968, AID435010, AID449749, AID449750, AID489010]. Type of test: functional.
The nature of test [7]: HEK293T cytotoxicity, dose response, cytotoxicity control for miR-122 modulator project, cell-based, inhibitor set, cherry-pick, set 2 (AID 720697). Type of test: functional.
A short description of test [8]: inhibitors of clade B AD8 Env fusion, dose response, cell-based, cherry-pick (AID 652062).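 Further: luciferase signal from cell-cell fusion driven by HIV-1 clade B AD8 Env; potency is for inhibitors of fusion seen as a drop in luminescence.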 Type of test: functional.
Test [9] can be described thus: ZM109 Env clade C HIV-1 fusion inhibitors, dose response, HeLa effector, CEM target cells, luciferase, cherry-pick (AID 652058). Type of test: functional, cell-based.
Test [10] can be described thus: inhibitors of intracellular T. cruzi replication, confirmation, NIH3T3 host cells, beta-gal luminescence (AID 2044).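 Further: intracellular parasites grown in NIH/3T3 mouse fibroblasts as host cells; luminescent beta-galactosidase reporter signal from transgenic T. cruzi replicating inside host cells; inhibitors lower the luminescence signal.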 Type of test: functional, cell-based.
Test [11] is described as follows: inhibitors of HIV Env-driven cell fusion, dose response, cherry-pick (AID 652057). Type of test: functional, cell-based.
Test [12] is described as follows: off-target signal loss in HeLa-CEM21 co-culture – HeLa F-luc CTL cells, cherry-picked, counter-screen for HIV-1 Env fusion inhibitor project, dose response (AID 652040).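 Further: potency for signal decrease marking cytotoxic or nonspecific inhibition.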 Type of test: functional, cell-based.
In test [13] the target is T2, Serine/threonine-protein phosphatase (Candida dubliniensis (strain CD36 / CBS 7987 / NCPF 3949 / NRRLY-17841) (Yeast), UniProt B9W6M3).
T2 sequence (B9W6M3 whole entry): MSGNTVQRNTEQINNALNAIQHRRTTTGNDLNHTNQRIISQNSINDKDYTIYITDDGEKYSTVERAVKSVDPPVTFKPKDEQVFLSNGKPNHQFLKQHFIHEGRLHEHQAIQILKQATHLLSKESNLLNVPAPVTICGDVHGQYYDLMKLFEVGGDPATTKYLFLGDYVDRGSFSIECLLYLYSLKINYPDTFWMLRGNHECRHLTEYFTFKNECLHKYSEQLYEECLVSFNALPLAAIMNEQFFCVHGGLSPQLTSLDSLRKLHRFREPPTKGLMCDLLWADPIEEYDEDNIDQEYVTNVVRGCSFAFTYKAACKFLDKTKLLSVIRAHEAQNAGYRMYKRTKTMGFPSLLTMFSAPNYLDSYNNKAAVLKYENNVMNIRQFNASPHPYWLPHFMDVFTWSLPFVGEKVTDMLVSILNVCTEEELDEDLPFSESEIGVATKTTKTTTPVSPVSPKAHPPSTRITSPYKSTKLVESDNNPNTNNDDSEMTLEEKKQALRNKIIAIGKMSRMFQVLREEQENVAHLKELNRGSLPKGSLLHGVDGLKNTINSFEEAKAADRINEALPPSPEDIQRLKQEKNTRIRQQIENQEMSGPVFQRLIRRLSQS
The experiment in a line: calcineurin pathway inhibitors in yeast reporter, dose response, S. cerevisiae, CDRE-lacZ, luminescence, secondary (AID 2388).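 Further: yeast reporter cells carrying a calcineurin-responsive lacZ construct stimulated with calcium chloride; luminescent beta-galactosidase reporter signal in whole cells rather than isolated phosphatase activity; potency for inhibition where a drop in reporter signal means calcineurin blockade.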 Type of test: functional, cell-based.

Another test can be described thus: cells. Type of test: functional, cell-based.
Test [14] in a line: Counterscreen for AddAB inhibitors: absorbance-based bacterial cell-based high throughput dose response assay for inhibitors of bacterial viability. [Related pubchem assays (depositor defined):AID435030, AID449728, AID449731, AID488942, AID488955, AID488956]. Type of test: functional.

Each structure is given as a SMILES string. The source made the active and inactive calls.
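Wherever CC50 is given: cells exposed to compound for 72 hours before luminescence readout.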

Sequence of Beta Lactamase (Q932Y6 whole entry): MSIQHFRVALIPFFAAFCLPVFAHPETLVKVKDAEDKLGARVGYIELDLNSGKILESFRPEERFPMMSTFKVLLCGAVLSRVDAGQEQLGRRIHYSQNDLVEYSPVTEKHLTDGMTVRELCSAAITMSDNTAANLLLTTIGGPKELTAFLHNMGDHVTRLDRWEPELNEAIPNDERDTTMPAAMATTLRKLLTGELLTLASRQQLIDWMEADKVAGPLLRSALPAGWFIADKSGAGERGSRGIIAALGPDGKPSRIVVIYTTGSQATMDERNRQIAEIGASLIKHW
Sequence of Protein kinase C theta type (Q04759 whole entry): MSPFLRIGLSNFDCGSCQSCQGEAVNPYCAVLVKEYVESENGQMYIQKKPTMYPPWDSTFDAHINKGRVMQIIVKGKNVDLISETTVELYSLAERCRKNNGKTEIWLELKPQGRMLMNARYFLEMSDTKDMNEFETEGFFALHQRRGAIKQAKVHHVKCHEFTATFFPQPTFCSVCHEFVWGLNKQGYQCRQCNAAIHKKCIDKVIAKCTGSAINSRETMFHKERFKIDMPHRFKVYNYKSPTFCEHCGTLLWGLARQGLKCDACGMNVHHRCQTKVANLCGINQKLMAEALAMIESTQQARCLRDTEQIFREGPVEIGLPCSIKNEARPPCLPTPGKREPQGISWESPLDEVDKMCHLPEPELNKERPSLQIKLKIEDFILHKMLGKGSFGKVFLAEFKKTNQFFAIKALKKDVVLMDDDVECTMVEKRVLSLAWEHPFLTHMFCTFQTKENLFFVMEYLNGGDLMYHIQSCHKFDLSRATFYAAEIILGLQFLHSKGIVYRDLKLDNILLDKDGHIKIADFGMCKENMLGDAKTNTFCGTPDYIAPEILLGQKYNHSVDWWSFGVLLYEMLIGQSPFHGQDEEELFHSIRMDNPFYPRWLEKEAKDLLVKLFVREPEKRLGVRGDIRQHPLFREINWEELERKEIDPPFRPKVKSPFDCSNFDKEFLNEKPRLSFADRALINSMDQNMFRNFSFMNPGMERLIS

As to `O=C(O)CC(C(=O)O)N1C(=O)/C(=C/C=C/c2ccco2)SC1=S` (stereo not given), the values for the IC50 (at SUMO-activating enzyme; in test [1]) were 1.12 µM (active) and > 39.8 µM (not active), respectively.

On to `O=C(Nc1cccc(C2Nc3ccc4ccccc4c3C3C=CCC32)c1)c1ccc(F)cc1` (stereo not given), for which the values for the Ki (on Focal adhesion kinase 1; in test [2]; in [3]) were > 6.31 µM (inactive), 1 µM (active) and > 3.98 µM (inactive), respectively.

As to `Cc1ccc(C(=O)OCn2ncc(Cl)c(Cl)c2=O)cc1`, at Protein RecA, the EC50 was 0.924 µM (active). The IC50 at Orexin receptor type 2 was > 88.8 µM (inactive); in [5] it was > 49.7 µM (inactive); on Beta Lactamase, 48.7 µM (inactive). For the same compound, the AC50 in [4] is 9.52 µM (active); in test [7], 4.05 µM (active). In addition, the CC50 in test [6] is 2.85 µM (active).

Take `CCCC(=O)NC(c1cccs1)c1cc(Cl)c2cccnc2c1O` (stereo not given): the AC50 is 6.73 µM (active) in test [8], 15 µM (active) in test [9], 4.9 µM (active) in test [11] and 6.09 µM (active) in test [12]. For the same compound, the results for the EC50 (in [10]; in [13]; in the test “cells”) were 1.06 µM (active), > 180 µM (inactive) and 24.4 µM (active), respectively. The IC50 in test [14] is > 119 µM (inactive).

The term IC50 denotes the midpoint of a concentration-inhibition curve. The term Ki denotes the equilibrium dissociation constant of an inhibitor or competing ligand from its target. In general, EC50 refers to the concentration that produces a half-maximal response. For orientation: AC50 means the concentration giving half of the maximal activity seen. One may read the CC50 as the concentration at which the toxic effect on the cells reaches its halfway point.
